Several values for one entry are separate records, joined by “and”; a condition that tells them apart may be missing. Equal entries are not always repeated. Toxic doses and inconclusive results are not listed. No stated cut-off is given here; in the data, active means T/C of 150% or more; inactive means T/C below 125%.
Tested on: L1210 leukemia ip in BDF1 mice, survival T/C
Assay: NCI In Vivo Anticancer Drug Screen. Data for tumor model L1210 Leukemia (intraperitoneal) in B6D2F1 (BDF1) mice
Details: endpoint: mean survival time, higher = longer survival
In short: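 In this screen, tumor-bearing mice given compound are compared to those given vehicle, and their survival values are reported as a treated-to-control quotient.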

[1] = dose: 100.0 mg/kg/injection, schedule: Q04DX002 (ip), vehicle: Klucel (hydroxypropylcellulose) (HPC)
[2] = dose: 200.0 mg/kg/injection, schedule: Q04DX002 (ip), vehicle: Klucel (hydroxypropylcellulose) (HPC)
[3] = dose: 400.0 mg/kg/injection, schedule: Q04DX002 (ip), vehicle: Klucel (hydroxypropylcellulose) (HPC)
[4] = dose: 150.0 mg/kg/injection, schedule: Q01DX001 (ip), vehicle: saline
[5] = dose: 100.0 mg/kg/injection, schedule: Q04DX003 (ip), vehicle: saline
[6] = dose: 50.0 mg/kg/injection, schedule: Q01DX009 (ip), vehicle: saline
[7] = dose: 100.0 mg/kg/injection, schedule: Q01DX009 (ip), vehicle: saline with Tween-80
[8] = dose: 400.0 mg/kg/injection, schedule: Q01DX009 (ip), vehicle: saline with Tween-80
[9] = dose: 100.0 mg/kg/injection, schedule: Q01DX001 (ip), vehicle: saline

Measured: T/C

Cc1ccc(NCC(=O)NN)cc1C
inactive: dose: 100.0 mg/kg/injection, schedule: Q01DX001 (ip), vehicle: carboxymethylcellulose (CMC) 106 % of control | dose: 100.0 mg/kg/injection, schedule: Q01DX009 (ip), vehicle: carboxymethylcellulose (CMC) 106 % of control and 91 % of control | [1] 91 % of control | dose: 100.0 mg/kg/injection, schedule: Q04DX002 (ip), vehicle: carboxymethylcellulose (CMC) 115 % of control | dose: 100.0 mg/kg/injection, schedule: Q04DX003 (ip), vehicle: carboxymethylcellulose (CMC) 101 % of control | dose: 200.0 mg/kg/injection, schedule: Q01DX001 (ip), vehicle: carboxymethylcellulose (CMC) 94 % of control | dose: 200.0 mg/kg/injection, schedule: Q01DX009 (ip), vehicle: carboxymethylcellulose (CMC) 105 % of control and 109 % of control | [2] 98 % of control | dose: 200.0 mg/kg/injection, schedule: Q04DX002 (ip), vehicle: carboxymethylcellulose (CMC) 94 % of control | dose: 200.0 mg/kg/injection, schedule: Q04DX003 (ip), vehicle: carboxymethylcellulose (CMC) 89 % of control | dose: 400.0 mg/kg/injection, schedule: Q01DX001 (ip), vehicle: carboxymethylcellulose (CMC) 96 % of control | dose: 400.0 mg/kg/injection, schedule: Q01DX009 (ip), vehicle: carboxymethylcellulose (CMC) 95 % of control and 100 % of control | [3] 113 % of control | dose: 400.0 mg/kg/injection, schedule: Q04DX002 (ip), vehicle: carboxymethylcellulose (CMC) 97 % of control | dose: 400.0 mg/kg/injection, schedule: Q04DX003 (ip), vehicle: carboxymethylcellulose (CMC) 101 % of control

CCCSC(CCc1cnc(N)nc1C)SCCC
inactive: [3] 94 % of control

O=C(C(Cl)Cl)N(O)c1ccccc1OCc1ccccc1
inactive: dose: 100.0 mg/kg/injection, schedule: Q01DX001 (ip), vehicle: saline with Tween-80 98 % of control | dose: 200.0 mg/kg/injection, schedule: Q01DX001 (ip), vehicle: saline with Tween-80 112 % of control | dose: 400.0 mg/kg/injection, schedule: Q01DX001 (ip), vehicle: saline with Tween-80 98 % of control

COc1cc(N)c2c(c1O)CN(C)CC2
inactive: dose: 75.0 mg/kg/injection, schedule: Q01DX001 (ip), vehicle: saline 95 % of control | [4] 100 % of control | dose: 300.0 mg/kg/injection, schedule: Q01DX001 (ip), vehicle: saline 86 % of control

CCN(CC)CCOc1ccc(/C=C2\CCc3ccccc3C2=O)cc1
inactive: dose: 25.0 mg/kg/injection, schedule: Q01DX007 (ip), vehicle: saline 104 % of control | dose: 50.0 mg/kg/injection, schedule: Q01DX007 (ip), vehicle: saline 102 % of control | dose: 50.0 mg/kg/injection, schedule: Q04DX003 (ip), vehicle: saline 95 % of control | dose: 100.0 mg/kg/injection, schedule: Q01DX007 (ip), vehicle: saline 96 % of control | [5] 95 % of control

Nc1ncnc2c1ncn2CCCCl
inactive: [6] 100 % of control | dose: 100.0 mg/kg/injection, schedule: Q01DX009 (ip), vehicle: saline 100 % of control | [5] 90 % of control | dose: 200.0 mg/kg/injection, schedule: Q01DX009 (ip), vehicle: saline 92 % of control | dose: 200.0 mg/kg/injection, schedule: Q04DX003 (ip), vehicle: saline 106 % of control

COc1cccc(CNc2cccc(Cl)c2Cl)c1OC
inactive: [7] 103 % of control | dose: 100.0 mg/kg/injection, schedule: Q04DX003 (ip), vehicle: other 102 % of control | dose: 200.0 mg/kg/injection, schedule: Q01DX009 (ip), vehicle: saline with Tween-80 94 % of control | dose: 200.0 mg/kg/injection, schedule: Q04DX003 (ip), vehicle: other 96 % of control | [8] 109 % of control | dose: 400.0 mg/kg/injection, schedule: Q04DX003 (ip), vehicle: other 113 % of control

CCCCCCC(=C/c1ccccc1)/C=N/NC(=O)c1ccc[n+](C)c1
inactive: dose: 25.0 mg/kg/injection, schedule: Q04DX003 (ip), vehicle: saline with Tween-80 93 % of control | dose: 50.0 mg/kg/injection, schedule: Q04DX003 (ip), vehicle: saline with Tween-80 116 % of control | dose: 100.0 mg/kg/injection, schedule: Q04DX003 (ip), vehicle: saline with Tween-80 104 % of control

Cc1ccc(S(=O)(=O)c2ccc(S(=O)(=O)c3ccccc3)cc2)cc1
inactive: [9] 95 % of control and 92 % of control | dose: 200.0 mg/kg/injection, schedule: Q01DX001 (ip), vehicle: saline 97 % of control | dose: 400.0 mg/kg/injection, schedule: Q01DX001 (ip), vehicle: saline 105 % of control and 91 % of control

COc1ccc(/C=N/N=C(N)N)cc1
inactive: dose: 15.0 mg/kg/injection, schedule: Q01DX Z (ip), vehicle: saline 103 % of control | dose: 30.0 mg/kg/injection, schedule: Q01DX Z (ip), vehicle: saline 100 % of control | dose: 30.0 mg/kg/injection, schedule: Q01DX Z (oral), vehicle: other 93 % of control | dose: 60.0 mg/kg/injection, schedule: Q01DX Z (ip), vehicle: saline 95 % of control | dose: 60.0 mg/kg/injection, schedule: Q01DX Z (oral), vehicle: other 100 % of control | dose: 120.0 mg/kg/injection, schedule: Q01DX Z (oral), vehicle: other 98 % of control

COc1cc2c(c(O)c1OC)c(=O)c1ccccc1n2C
inactive: dose: 60.0 mg/kg/injection, schedule: Q01DX Z (ip), vehicle: carboxymethylcellulose (CMC) 103 % of control | dose: 120.0 mg/kg/injection, schedule: Q01DX Z (ip), vehicle: carboxymethylcellulose (CMC) 102 % of control | dose: 240.0 mg/kg/injection, schedule: Q01DX Z (ip), vehicle: carboxymethylcellulose (CMC) 97 % of control

Cc1ccc(-n2c(O)c(N=Nc3ccccc3C)c(=O)n(-c3ccc(I)cc3)c2=S)cc1
inactive: dose: 37.5 mg/kg/injection, schedule: Q01DX001 (ip), vehicle: Klucel (hydroxypropylcellulose) (HPC) 101 % of control | dose: 75.0 mg/kg/injection, schedule: Q01DX001 (ip), vehicle: Klucel (hydroxypropylcellulose) (HPC) 108 % of control | dose: 150.0 mg/kg/injection, schedule: Q01DX001 (ip), vehicle: Klucel (hydroxypropylcellulose) (HPC) 92 % of control

CCOC(=O)C(C)(O)C(C)(Cl)c1ccccc1 (stereo not given)
inactive: dose: 25.0 mg/kg/injection, schedule: Q01DX009 (ip), vehicle: Klucel (hydroxypropylcellulose) (HPC) 98 % of control | dose: 25.0 mg/kg/injection, schedule: Q04DX002 (ip), vehicle: saline 102 % of control | dose: 28.0 mg/kg/injection, schedule: Q01DX001 (ip), vehicle: saline 107 % of control | dose: 44.0 mg/kg/injection, schedule: Q01DX001 (ip), vehicle: saline 106 % of control | dose: 50.0 mg/kg/injection, schedule: Q01DX009 (ip), vehicle: Klucel (hydroxypropylcellulose) (HPC) 96 % of control | dose: 50.0 mg/kg/injection, schedule: Q04DX002 (ip), vehicle: saline 114 % of control | dose: 66.0 mg/kg/injection, schedule: Q01DX001 (ip), vehicle: saline 104 % of control | [9] 101 % of control | dose: 100.0 mg/kg/injection, schedule: Q01DX009 (ip), vehicle: Klucel (hydroxypropylcellulose) (HPC) 101 % of control | [4] 104 % of control | dose: 200.0 mg/kg/injection, schedule: Q01DX009 (ip), vehicle: Klucel (hydroxypropylcellulose) (HPC) 98 % of control | dose: 200.0 mg/kg/injection, schedule: Q04DX002 (ip), vehicle: saline 109 % of control and 111 % of control | dose: 400.0 mg/kg/injection, schedule: Q04DX002 (ip), vehicle: saline 114 % of control

C[C@H]1CC[C@@H]2[C@@H](C)[C@H]3[C@H](C[C@H]4[C@@H]5CC=C6C[C@@H](O)CC[C@]6(C)[C@H]5C[C@H](O)[C@]34C)N2C1
inactive: dose: 100.0 mg/kg/injection, schedule: Q01DX001 (sc), vehicle: steriod suspending solution 100 % of control | dose: 200.0 mg/kg/injection, schedule: Q01DX001 (sc), vehicle: steriod suspending solution 91 % of control | dose: 400.0 mg/kg/injection, schedule: Q01DX001 (sc), vehicle: steriod suspending solution 91 % of control

COc1ccc(NC(=O)C(CC(C(C)=O)C(=O)Nc2ccc(OC)cc2)C(C)=O)cc1 (stereo not given)
inactive: [7] 87 % of control | [8] 88 % of control

O=c1ssc(Nc2ccccc2)c1Cl
inactive: [1] 93 % of control | [2] 100 % of control | [3] 104 % of control

C#CCSC(=N)N
inactive: dose: 25.0 mg/kg/injection, schedule: Q01DX009 (ip), vehicle: saline 101 % of control | [6] 93 % of control | [5] 103 % of control

From PubChem BioAssay AID248 (DTP/NCI, 2004)
